Data as given in patent US6432985B1, “Neuroprotective substituted piperidine compounds with activity as NMDA NR2B subtype selective antagonists” (Hoffmann-La Roche Inc., priority 2000, dated 2002).
pIC50: −log10 of the molar value.

Assays:
[1] = molecular target: T1, NMDA NR2B subunit containing receptors (Rattus norvegicus, UniProt P35439+Q00960); assay: [3H]-Ro 25-6981 binding; conditions: rat brain membranes; 5 nM 3H-Ro 25-6981; indicates affinity for NMDA NR2B subunit containing receptors; read-out: Inhibition of [3H]-Ro 25-6981 binding IC50
T1 construct: Membranes were prepared by homogenization of the whole brain minus cerebellum and medulla oblongata; from tissue; host or cells: rat whole brain minus cerebellum and medulla oblongata, membrane preparation
Protocol: 3H-Ro 25-6981 Binding(Ro 25-6981 is [R-(R*,S*)]-α-(4-Hydroxy-phenyl)-β-methyl-4-(phenyl-methyl)-1-piperidine propanol)
(§1) Male Füllinsdorf albino rats weighing between 150-200 g were used. Membranes were prepared by homogenization of the whole brain minus cerebellum and medulla oblongata with a Polytron (10,000 rpm, 30 seconds), in 25 volumes of a cold Tris-HCl 50 mM, EDTA 10 mM, pH 7.1 buffer. The homogenate was centrifuged at 48.000 g for 10 minutes at 4° C. The pellet was resuspended using the Polytron in the same volume of buffer and the homogenate was incubated at 37° C. for 10 minutes. After centrifugation the pellet was homogenized in the same buffer and frozen at −80° C. for at least 16 hours but not more than 10 days. For the binding assay the homogenate was thawed at 37° C., centrifuged and the pellet was washed three times as above in a Tris-HCl 5 mM, pH 7.4 cold buffer. The final pellet was resuspended in the same buffer and used at a final concentration of 200 μg of protein/ml.
[3H]-Ro 25-6981 binding experiments were performed using a Tris-HCl 50 mM, pH 7.4 buffer. For displacement experiments 5 nM of 3H-Ro 25-6981 were used and non specific binding was measured using 10 μM of tetrahydroisoquinoline and usually it accounts for 10% of the total. The incubation time was 2 hours at 4° C. and the assay was stopped by filtration on Whatman GF/B glass fiber filters (Unifilter-96, Packard, Zürich, Switzerland). The filters were washed 5 times with cold buffer. The radioactivity on the filter was counted on a Packard Top-count microplate scintillation counter after addition of […] of microscint 40 (Canberra Packard S.A., Zürich, Switzerland).
The effects of compounds were measured using a minimum of 8 concentrations and repeated at least once. The pooled normalized values were analyzed using a non-linear regression calculation program which provide IC50 with their relative upper and lower 95% confidence limits (RS1, BBN, USA).

α1-adrenergic receptors = assay: [3H]-Prazosin binding; conditions: rat brain membranes; 0.2 nM 3H-Prazosine; indicates affinity for α1-adrenergic receptors; read-out: Inhibition of [3H]-Prazosin binding IC50
Protocol: as §1, with “a Plytron” for “a Polytron”, “[…]” for “200 μg”
3H-Prazosin binding experiments were performed using a Tris-HCl 50 mM, pH 7.4 buffer. For displacement experiments 0.2 nM of 3H-Prazosine were used and non specific binding was measured using […] of Chlorpromazine. The incubation time was 30 minutes at room temperature and the assay was stopped by filtration on Whatman GF/B glass fiber filters (Unifilter-96, Canberra Packard S.A., Zürich, Switzerland). The filters were washed 5 times with cold buffer. The radioactivity on the filter was counted on a Packard Top-count microplate scintillation counter after addition of […] of microscint 40 (Canberra Packard S.A., Zürich, Switzerland). The effects of compounds were measured using a minimum of 8 concentrations and repeated at least once. The pooled normalized values were analyzed using a non-linear regression calculation program which provide IC50 with their relative upper and lower 95% confidence limits (RS1, BBN, USA).

hERG K+ channel = molecular target: T2, hERG K+ channel (Homo sapiens, UniProt Q12809); assay: Inhibition of the hERG K+ channel (whole-cell patch-clamp, CHO cells); type: cell-based; conditions: CHO cells stably transfected with hERG (pcDNA3-hERG), pH 7.3; average effect at 10 μM; recombinant human ERG channels in CHO cells; read-out: Inhibition of hERG K+ current, effect (%) at 10 μM
T2 construct: expressed in transfected cells
From the text: (§2) Methods for Studying the Inhibition of the hERG K^+ Channel
(§3) CHO cells were stably transfected by a pcDNA3-hERG expression vector containing a SV40-neo cassette for selection. Cells were thinly plated into 35 mm dishes and used for the electrophysiological experiment ½-3 d later.
(§4) During the experiment the cells were continuously superfused with an extracellular saline containing (in mM): NaCl 150, KCl 10, MgCl2 1, CaCl2 3, HEPES 10 (pH=7.3 by addition of NaOH). A 10-mM stock solution of the test compound was made from pure DMSO. Test solution were made by at least 1000-fold dilution of the stock solution into the extracellular saline. The glass micropipettes for whole-cell patch-clamp recording were filled with a containing (in mM): KCl 110, BAPTA 10, HEPES 10, MgCl2 4.5, Na2ATP 4, Na2-phosphocreatine 20, creatine kinase 200 μg/ml (pH=7.3 by addition of KOH).
(§5) The whole-cell configuration of the patch-clamp technique was used for the experiments. Cells were clamped to −80 mV holding potential and repetitively (0.1 Hz) stimulated by a voltage pulse pattern consisting of a 1-s conditioning depolarisation to 20 mV immediately followed by a hyperpolarisation of 50 ms duration to −120 mV. The membrane current was recorded for at least 3 min (18 stimuli) before compound application (control), and then for another two 3-min intervals in presence of two different concentrations of the compound. The current amplitudes (Itest) at the end of each compound application interval were divided by the mean current amplitude (Icontrol) during the initial control period to calculate the percentage effect of the compound:
(§6) effect (%)=(1-Itest/Icontrol)·100.
(§7) Compound concentrations were chosen in decade steps (usually 1 and 10 μM) around the expected 50% inhibitory concentration (IC50). If after the first experiment the IC50 turned out to lie outside the range between the two chosen concentrations the concentrations were changed to bracket the IC50 in the following experiments. The compound was tested on at least three cells. Its IC50 was then estimated from the population of all percent-effect values by non-linear regression using the function […]). Concentrations higher than 10 μM were not tested.

[2] = molecular target: T3, recombinant human ERG potassium channels (Homo sapiens, UniProt Q12809); assay: as above; type: cell-based; conditions: recombinant human ERG channels expressed in CHO cells; concentrations higher than 10 μM not tested; read-out: Inhibition of hERG K+ current IC50
T3 construct: expressed in transfected cells
From the text: as §2, §3, §4, §5, §6, §7

T3 sequence (Q12809 whole entry): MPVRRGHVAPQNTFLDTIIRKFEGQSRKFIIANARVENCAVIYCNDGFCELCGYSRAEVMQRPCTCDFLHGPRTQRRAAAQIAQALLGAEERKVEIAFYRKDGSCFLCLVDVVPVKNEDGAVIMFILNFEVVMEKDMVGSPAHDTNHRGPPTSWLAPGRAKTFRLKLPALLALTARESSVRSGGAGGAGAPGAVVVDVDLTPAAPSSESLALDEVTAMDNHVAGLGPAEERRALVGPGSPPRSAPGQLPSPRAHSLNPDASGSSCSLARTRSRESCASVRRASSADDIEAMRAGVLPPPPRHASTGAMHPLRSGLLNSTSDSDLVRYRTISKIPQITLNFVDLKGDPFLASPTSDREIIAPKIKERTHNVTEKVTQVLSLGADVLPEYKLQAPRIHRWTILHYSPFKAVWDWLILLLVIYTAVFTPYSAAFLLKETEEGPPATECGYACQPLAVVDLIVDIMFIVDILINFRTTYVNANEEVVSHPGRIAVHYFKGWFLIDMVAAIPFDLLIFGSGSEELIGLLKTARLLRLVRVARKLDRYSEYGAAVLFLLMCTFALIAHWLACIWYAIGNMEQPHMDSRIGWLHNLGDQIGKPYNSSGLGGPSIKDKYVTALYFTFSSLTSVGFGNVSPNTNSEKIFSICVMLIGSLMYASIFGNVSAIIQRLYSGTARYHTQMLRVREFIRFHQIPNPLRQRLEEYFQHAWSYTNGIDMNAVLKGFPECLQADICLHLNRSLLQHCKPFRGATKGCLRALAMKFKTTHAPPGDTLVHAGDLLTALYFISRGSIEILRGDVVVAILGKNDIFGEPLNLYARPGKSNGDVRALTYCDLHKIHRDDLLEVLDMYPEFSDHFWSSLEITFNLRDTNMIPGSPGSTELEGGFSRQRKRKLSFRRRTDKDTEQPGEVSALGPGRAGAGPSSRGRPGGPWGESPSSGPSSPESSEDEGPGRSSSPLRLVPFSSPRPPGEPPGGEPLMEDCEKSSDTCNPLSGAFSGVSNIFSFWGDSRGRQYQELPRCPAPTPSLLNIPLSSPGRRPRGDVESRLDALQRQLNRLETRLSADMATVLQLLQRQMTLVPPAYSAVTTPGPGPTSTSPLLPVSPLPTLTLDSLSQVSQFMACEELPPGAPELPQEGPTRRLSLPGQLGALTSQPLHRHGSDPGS
T2 sequence (Q12809 whole entry): as above
T1 sequence (Q00960 27-1482, other chains not shown): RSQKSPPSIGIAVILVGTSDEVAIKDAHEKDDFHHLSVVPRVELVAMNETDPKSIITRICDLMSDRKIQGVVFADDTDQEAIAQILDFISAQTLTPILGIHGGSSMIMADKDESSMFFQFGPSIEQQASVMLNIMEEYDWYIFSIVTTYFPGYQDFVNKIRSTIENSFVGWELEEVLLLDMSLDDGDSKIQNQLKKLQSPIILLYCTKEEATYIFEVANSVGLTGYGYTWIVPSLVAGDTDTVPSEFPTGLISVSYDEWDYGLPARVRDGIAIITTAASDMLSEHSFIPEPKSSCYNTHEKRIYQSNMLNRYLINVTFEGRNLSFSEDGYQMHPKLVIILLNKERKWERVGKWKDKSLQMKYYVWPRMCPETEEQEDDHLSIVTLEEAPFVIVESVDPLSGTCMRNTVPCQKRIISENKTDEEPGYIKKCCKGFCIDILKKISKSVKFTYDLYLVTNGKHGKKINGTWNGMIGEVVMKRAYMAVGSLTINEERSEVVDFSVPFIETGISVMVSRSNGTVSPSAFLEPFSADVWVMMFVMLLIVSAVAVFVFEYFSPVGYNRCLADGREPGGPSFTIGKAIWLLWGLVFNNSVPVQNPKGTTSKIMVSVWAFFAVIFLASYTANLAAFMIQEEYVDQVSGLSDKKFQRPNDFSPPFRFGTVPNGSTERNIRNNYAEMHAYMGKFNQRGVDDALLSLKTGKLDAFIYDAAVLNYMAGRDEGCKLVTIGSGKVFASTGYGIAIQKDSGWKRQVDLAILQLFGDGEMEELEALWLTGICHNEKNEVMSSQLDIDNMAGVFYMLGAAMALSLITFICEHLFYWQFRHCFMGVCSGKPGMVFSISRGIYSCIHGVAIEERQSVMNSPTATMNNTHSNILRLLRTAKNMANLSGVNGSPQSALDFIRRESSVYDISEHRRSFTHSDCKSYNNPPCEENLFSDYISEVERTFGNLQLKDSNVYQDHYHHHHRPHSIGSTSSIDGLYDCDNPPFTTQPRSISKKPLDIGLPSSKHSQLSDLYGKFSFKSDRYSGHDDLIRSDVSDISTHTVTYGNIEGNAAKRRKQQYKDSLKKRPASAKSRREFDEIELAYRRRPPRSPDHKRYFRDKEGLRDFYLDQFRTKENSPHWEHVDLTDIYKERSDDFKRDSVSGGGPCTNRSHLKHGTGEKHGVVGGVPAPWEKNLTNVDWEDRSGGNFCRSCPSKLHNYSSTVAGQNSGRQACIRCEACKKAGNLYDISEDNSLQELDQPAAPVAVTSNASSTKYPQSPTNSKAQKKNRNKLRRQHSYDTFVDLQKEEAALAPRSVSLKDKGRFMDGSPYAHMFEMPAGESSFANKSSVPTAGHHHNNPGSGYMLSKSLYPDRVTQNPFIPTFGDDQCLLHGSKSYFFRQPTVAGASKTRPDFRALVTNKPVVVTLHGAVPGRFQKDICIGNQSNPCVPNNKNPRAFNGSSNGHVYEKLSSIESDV

| pIC50 [1] | pIC50 (α1-adrenergic receptors) | SMILES | inhibition at 3 min, 10 µM (hERG K+ channel) [%] | pIC50 [2] |
| --- | --- | --- | --- | --- |
| 7.35 | 4.57 | Oc1ccc(OCCN2CC[C@](O)(Cc3ccccc3)[C@H](O)C2)cc1 (racemic) [I (racemate), (3R,4R) and (3S,4S)-4-benzyl-1-[2-(4-hydroxy-phenoxy)-ethyl]-piperidine-3,4-diol] | 45 | < 5.00 |
| 8.00 | 5.46 | Cc1ccc(CC2(O)CCN(CCOc3ccc(O)cc3)CC2)cc1 [EP 824098, 1-[2-(4-hydroxy-phenoxy)-ethyl]-4-(4-methyl-benzyl)-piperidin-4-ol, reference compound] |  | 6.16 |
| 7.42 | 4.60 | Oc1ccc(OCCN2CC[C@](O)(Cc3ccccc3)[C@H](O)C2)cc1 [I-1 (R,R), (3R,4R)-4-benzyl-1-[2-(4-hydroxy-phenoxy)-ethyl]-piperidine-3,4-diol] | 44 | < 5.00 |
| 7.41 | 4.52 | Oc1ccc(OCCN2CC[C@@](O)(Cc3ccccc3)[C@@H](O)C2)cc1 [I-2 (S,S), (3S,4S)-4-benzyl-1-[2-(4-hydroxy-phenoxy)-ethyl]-piperidine-3,4-diol] | 40 | < 5.00 |
